Laboratory results reported in US9386766B2, “Insect attractant compositions” (University of Greenwich, priority 2009, dated 2016).

How the values were obtained:
H. armigera [1] = assay: Field trials in India and Bangladesh: floral bait trap catches, Trials 1-5 (Example 2); type: in vivo, Helicoverpa armigera; settings: Trial 1; for Total catches H. armigera: Cotton
Excerpt: (§1) In addition, five pheromone baited traps (baited with the pheromone of the key Helicoverpa and related spp.) were used as standards for each target species. Lures were changed every two to three weeks.
(§2) The choice of pheromone trap depended on local availability. In India, the preferred trap was the standard Pheromone Chemicals Ltd. plastic funnel trap, while in Bangladesh a plastic water trap was used. Pheromone lures for the trials were provided by NRI. In India and Bangladesh, H. armigera, Maruca vitrata, Earias vittella and Pectinophora gossypiella lures were provided.
(§3) The floral baits were provided in sealed lay-flat polyethylene sachets. The sachets were hung inside the traps in the same way as the pheromone lures. Traps were supported at crop height and the height was adjusted periodically to account for crop growth. Yellow-coloured traps were avoided in order to deter pollinators. Preferably, traps should be colourless or green-coloured. Trap covers were opaque. Where necessary, a killing agent was incorporated into each trap—to ensure insects were dead before opening the trap to count catches.
(§4) Trial 1 was designed to investigate the effect of altering the relative amount of the two main components, phenylacetaldhyde and salicylaldehyde on catch. The trial was laid out in cotton fields at four locations: Narakoduru and Jammikunta in Andhra Pradesh, India, and Shreepur and Jessore in Bangladesh.
In Trial 2, the standard 5-component blend used in Example 1 (96/12) was compared to: Magnet® (96/10), Li et al. (2005) (96/11) and a binary blend of phenylacetaldehyde and salicylaldehyde (96/13).
In Trial 3, a third component was added to a roughly 70:30 blend of phenylacetaldehyde:salicylaldehyde, to assess whether the additional compound made the binary blend more attractive to nocturnal Lepidoptera. The compositions of the blends tested are shown in Table 11 and the results in Table 12.
In Trial 4, two compounds were added to a 70:30 blend of phenylacetaldehyde:salicylaldehyde, to assess whether the additional compounds made the binary blend more attractive to nocturnal Lepidoptera. The compositions of the blends tested are shown in Table 13 and the results in Table 14.
In Trial 5, the three compounds, methyl 2-methoxybenzoate, linalool and limonene were added to the binary 70:30 blend of phenylacetaldehyde:salicylaldehyde in two ratios, 1:1:1 and 1:1:0.5 at 3, 9, 30 and 90% w/w of the binary blend, to assess whether the additional compounds made the binary blend more attractive to nocturnal Lepidoptera. The compositions of the blends tested are shown in Table 15 and the results in Table 16.

All Lepidoptera = assay: Field trials in India: floral bait trap catches, Trials 1-5 (Example 2); type: in vivo; settings: Trial 1; for Total catches All Lepidoptera: Cotton; for Attractiveness to the non-target species recorded: species of Table 17
Excerpt: as §1, §2, §3, §4
In India, records were taken of all Lepidopterous species caught in the traps. The total Lepidoptera catches reflected the general trends in H. armigera catches. […] Thus blends containing between 3 and 30 percent salicylaldehyde relative to phenylacetaldehyde were on average the most attractive of the binary blends tested. […]

Apis mellifera = assay: Floral bait trap catches of non-target insects (Example 2); type: in vivo; settings: Trial 1; Narakoduru, Warangal District, AP, India; Cotton
Excerpt: as §1, §2, §3
(§5) In Tables 17 to 23 the total catches of selected Lepidoptera, Hymenoptera (Apis mellifera and Bombus spp.) and Diptera are shown.

Autographa gama = assay: as above; type: in vivo; settings: Trial 1; Narakoduru, Warangal District, AP, India; Cotton
Excerpt: as §1, §2, §3, §5

Bombus spp. = assay: as above; type: in vivo; settings: Trial 1; Narakoduru, Warangal District, AP, India; Cotton
Excerpt: as §1, §2, §3, §5

Diaphania indica = assay: as above; type: in vivo; settings: Trial 1; Narakoduru, Warangal District, AP, India; Cotton
Excerpt: as §1, §2, §3, §5

Diptera = assay: as above; type: in vivo; settings: Trial 1; Narakoduru, Warangal District, AP, India; Cotton
Excerpt: as §1, §2, §3, §5

Lampides boeticus = assay: as above; type: in vivo; settings: Trial 1; Narakoduru, Warangal District, AP, India; Cotton
Excerpt: as §1, §2, §3, §5

Other Lepidoptera = assay: as above; type: in vivo; settings: Trial 1; Narakoduru, Warangal District, AP, India; Cotton
Excerpt: as §1, §2, §3, §5

Parnara guttatus = assay: as above; type: in vivo; settings: Trial 1; Narakoduru, Warangal District, AP, India; Cotton
Excerpt: as §1, §2, §3, §5

Spodoptera litura = assay: as above; type: in vivo; settings: Trial 1; Narakoduru, Warangal District, AP, India; Cotton
Excerpt: as §1, §2, §3, §5

H. armigera [2] = assay: Field trials in India and Bangladesh: floral bait trap catches, Trials 1-5 (Example 2); type: in vivo, Helicoverpa armigera; settings: Trial 1; Jessore; Country bean
H. armigera [3] = assay: Field trials in Bangladesh: trap catch with floral odour lures (Example 1); type: in vivo, Helicoverpa armigera; settings: Table 1; increasing relative amount of minor components; adult H. armigera
Protocol: Lures were prepared from heat-sealed low density polyethylene sachets formed from ‘layflat plastic’ tubing. In early field work, the lures were prepared on site, with each lure comprising a single compound in a dose of 0.1 ml. The release rate of compounds from the polyethylene sachets is independent of the amount of material in the sachet and so a particular dosage affects longevity only. Longevity, in turn, is dependent on ambient temperature, with an increase of 7-10° C. leading to a doubling of the release rate. Water traps were placed at crop height and trap catches were taken as a crude measure of attractiveness to the compounds. As the compounds mimic ‘floral odours’ generally, they were not expected to be species-specific in their effect.
During testing, different combinations of floral odours, together with H. armigera pheromone, were used as attractants. The chemicals were put inside sealed plastic sachets (10×5 cm) and the sachets were hung inside traps prepared from clear plastic pots (19 cm height, 15 cm dia.) with two triangular holes (12 cm base, 9 cm height) at opposite sides. The traps were set at 1 m height with an inter-trap distance of 10 m. Insects that were trapped by the lures were collected, identified and recorded at weekly intervals.

[4] = system: female Helicoverpa armigera; settings: Pawar et al., 1993; cited from earlier work

SMILES	Attractiveness to H. armigera (H. armigera [1])	Total catches H. armigera (H. armigera [1]; Jammikunta KVK)	Total catches H. armigera (H. armigera [1]; Jessore)	Total catches H. armigera (H. armigera [1]; Narakoduru, Guntur)	Total catches H. armigera (H. armigera [1]; Shreepur)	Total catches All Lepidoptera (All Lepidoptera; Jammikunta KVK)	Total catches All Lepidoptera (All Lepidoptera; Narakoduru, Guntur)	Attractiveness to the non-target species recorded (All Lepidoptera)	Total catches Apis mellifera (Apis mellifera)	Total catches Autogr. gama (Autographa gama)	Total catches Bombus spp. (Bombus spp.)	Total catches Diaphania indica (Diaphania indica)	Total catches Diptera (Diptera)	Total catches Lampides boeticus (Lampides boeticus)	Total catches Other Lepidop. (Other Lepidoptera)	Total catches Parnara guttat. (Parnara guttatus)	Total catches Spodopt. litura (Spodoptera litura)	Total catches H. armigera (H. armigera [2])	H. armigera Catch (H. armigera [3])	Attraction of female Helicoverpa armigera [4]
O=Cc1ccccc1O [96/01, salicylaldehyde]	attractive	0	16	0	1	3	8	unattractive	10	0	0	1	1	0	6	0	1	3	–	–
O=CCc1ccccc1 [96/09, phenylacetaldehyde]	–	1	30	1	20	15	94	attractive	18	12	1	13	8	1	67	14	1	0	9	strong attractant
